Where a SMILES comes first, the peptide text is derived from it. Where no end group is shown, it is not given here. The star is where a group is joined. PEG 22kD = 22 kDa polyethylene glycol (on cysteine); Palmitoyl = CCCCCCCCCCCCCCCC(=O)*
Columns and labels:
glucagon receptor = molecular target: T1, glucagon receptor (Rattus norvegicus, UniProt P30082); assay: Competitive binding of peptide to the glucagon receptor in rat liver plasma membranes (125I glucagon)
T1 construct: glucagon receptor present in the plasma membranes isolated from rat liver; from tissue; host or cells: rat liver plasma membranes
T1 sequence (P30082 27-485): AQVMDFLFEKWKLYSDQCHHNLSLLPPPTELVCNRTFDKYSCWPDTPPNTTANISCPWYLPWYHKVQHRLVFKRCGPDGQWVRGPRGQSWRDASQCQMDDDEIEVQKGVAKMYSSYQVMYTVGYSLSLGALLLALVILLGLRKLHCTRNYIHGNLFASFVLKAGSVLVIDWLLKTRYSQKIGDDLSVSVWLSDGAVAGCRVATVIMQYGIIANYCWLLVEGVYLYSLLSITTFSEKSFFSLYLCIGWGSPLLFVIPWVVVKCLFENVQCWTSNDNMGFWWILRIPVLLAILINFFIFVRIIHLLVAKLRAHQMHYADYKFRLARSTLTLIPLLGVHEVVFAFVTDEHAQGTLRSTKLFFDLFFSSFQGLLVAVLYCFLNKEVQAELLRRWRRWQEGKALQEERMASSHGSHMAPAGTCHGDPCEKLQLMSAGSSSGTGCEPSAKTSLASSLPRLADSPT
Procedure: The wet weight of the livers was determined and the tissue minced in 5 volumes of ice cold TES buffer and a slurry prepared using a polytron. All buffers and spins were kept at 4° C. The slurry was further homogenized using three strokes of a handheld dounce homogenizer. The homogenate was passed through several layers of cheesecloth and spun at 25,000×g for 10 minutes. Pellets were homogenized in 22.1 ml TES buffer using 10 strokes of a handheld dounce homogenizer. Twenty-seven point nine milliliters of 2.4 M sucrose in TE was added and mixed well. The homogenate was distributed among several tubes, and each tube was overlaid with 7 ml of TES buffer. The tubes were spun at 120,000×g for 60 minutes. The plasma membranes were removed from the interface that formed during the spin, diluted in TES and concentrated using a 15 minute spin at 200,000×g. The resulting pellet was again homogenized in 9.8 ml TES buffer, combined with 10.3 ml 2.4M sucrose, overlaid with 7 ml TES, and centrifuged at 180,000×g for 30 min. […] The final pellet was resuspended in TES. Plasma membranes were stored at −80° C. until ready for use.
(§1) Competitive binding of some polypeptides of the invention to rat liver plasma membranes was measured as follows. Ninety-six-well GF/C filtration plates (Millipore, Bedford, Mass.) were blocked with 0.1% PEI for at least one hour and washed twice with binding buffer consisting of 20 mM Tris, 2 mM EDTA, pH 7.5, 1 mg/ml BSA, and 1 mg/ml bacitracin. […] The plates were dried, scintillant was added to each well, and cpm per well determined using a Wallac Microbeta counter.

GLP-1 receptor [1] = molecular target: T2, GLP-1 receptor (Rattus norvegicus, UniProt P32301); assay: Peptide signaling through GLP-1 receptor, cAMP scintillation proximity assay in RINm5F cells; type: cell-based; conditions: for GLP1 Relative Potency: EC50 of native GLP-1 (7-36) divided by EC50 of polypeptide x 100, cAMP in RINm5F cells; for Emax: RIN-m5F, read-out: % GLP1 max; for % GLP1 max: maximal cAMP activity relative to native GLP-1 (7-36), RINm5F cells
T2 construct: endogenous in cells; host or cells: RINm5F cells
T2 sequence (P32301 22-463): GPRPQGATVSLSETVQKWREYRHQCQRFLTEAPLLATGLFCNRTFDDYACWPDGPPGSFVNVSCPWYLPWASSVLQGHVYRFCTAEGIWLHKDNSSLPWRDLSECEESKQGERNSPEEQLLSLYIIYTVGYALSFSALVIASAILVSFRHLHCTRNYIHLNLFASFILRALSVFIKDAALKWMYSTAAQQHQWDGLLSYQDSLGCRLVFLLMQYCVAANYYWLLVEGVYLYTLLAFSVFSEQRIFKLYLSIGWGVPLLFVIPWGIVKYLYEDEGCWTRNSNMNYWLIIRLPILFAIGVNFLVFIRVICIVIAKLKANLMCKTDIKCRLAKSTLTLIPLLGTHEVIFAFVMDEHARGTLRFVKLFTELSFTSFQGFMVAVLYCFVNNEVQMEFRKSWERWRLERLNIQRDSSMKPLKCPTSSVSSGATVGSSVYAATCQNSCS
Procedure: The media was removed and the cells were washed twice with PBS. […] For assay of peptides conjugated with fatty acid, the BSA was omitted from the incubation buffer. The incubation buffer was removed, and the cells were lysed in the lysis reagent provided with the cAMP Scintillation Proximity Assay (SPA) direct screening assay system (Amersham Pharmacia Biotech Inc, Piscataway, N.J.). The amount of cAMP (in pmol) present in the lysates was determined following instructions provided with this kit.
The amount of cAMP (in pmol) produced at each concentration of peptide was plotted and analyzed by nonlinear regression using Prizm software to determine the EC50 for each peptide.

GLP-1 receptor [2] = molecular target: T2, GLP-1 receptor; assay: Competitive binding of peptide to the GLP-1 receptor in RINm5F cell plasma membranes (125I GLP-1); conditions: read-out: GLP1 RIN IC50
Procedure: Flasks of RINm5F cells were washed with PBS, scraped in 20 mM Hepes-1 mM EDTA-250 mM sucrose buffer containing protease inhibitors (HES) and homogenized in a dounce homogenizer followed by repeated resuspension through a 23 gauge needle. Unbroken cells and nuclei were removed by centrifugation at 500×g for 5 minutes. The pellet was resuspended in HES buffer using a 23 gauge needle and the centrifugation was repeated. The supernatants from the two spins were combined and centrifuged at 40,000×g for 20 min. The resulting plasma membrane pellet was resuspended in HES buffer using a 23 gauge needle followed by a 25 gauge needle. Membranes were stored at −80° C. until use.
as §1, with “RINm5F cell” for “rat liver”, “0.3%” for “0.1%”

[3] = Intraperitoneal glucose tolerance testing (IPGTT) in rats or mice; type: in vivo; conditions: ipGTT in mice 3 hours post dosing with 100 μg/kg peptide
Procedure: Blood glucose levels during intraperitoneal glucose tolerance testing in rats or mice by some polypeptides of the invention were measured as follows. The in vivo activity of the polypeptides of the invention when administered subcutaneously was examined in rats or mice. Rats or mice fasted overnight were given a subcutaneous injection of control or peptide (100 μg/kg). Basal blood glucose was measured prior to administration of peptides or three or 17 hours after administration of derivatized peptides, and the rats or mice were given 2 g/kg of glucose intraperitoneally. Blood glucose was measured again after 15, 30 and 60 minutes in rats or 30 and 60 minutes in mice.

| Compound | IC50 (glucagon receptor) [nM] | GLP1 Relative Potency (GLP-1 receptor [1]) [%] | Emax (GLP-1 receptor [1]) [%] | IC50 (GLP-1 receptor [2]) [nM] | % GLP1 max (GLP-1 receptor [1]) [%] | In vivo Decrease IpGTT AUC [3] [%] |
| --- | --- | --- | --- | --- | --- | --- |
| HSQGTFTSDYAKYLDARRAKEFIAWLVCGRG [G74] | 21.7 | 8.4 | 88.7 | 4.4 | – | – |
| HSQGTFTSDYAKYLDAAKAKEFIAWLVKGRG [G60] | 682 | 22.3 | 95.7 | 13.8 | – | – |
| HSQGTFTSDYAAYLDARRAKEFIAWLVKGR-NH2 [G56] | 125 | 37.2 | 115 | 6.6 | – | – |
| HSQGTFTSDYAKYLDARRAKEFIAWLVKGCG [G76] | 59.1 | 7.7 | 85 | 10.2 | – | – |
| HSQGTFTSDYAKYLDARRAKEFIAWLVKCRG [G75] | 54 | 6.6 | 86.1 | 7.7 | – | – |
| CC(C)C[C@H](NC(=O)[C@H](Cc1ccc(O)cc1)NC(=O)[C@H](CCCCN)NC(=O)[C@H](CO)NC(=O)[C@H](Cc1ccc(O)cc1)NC(=O)[C@H](CC(=O)O)NC(=O)[C@H](CO)NC(=O)[C@@H](NC(=O)[C@H](Cc1ccccc1)NC(=O)[C@@H](NC(=O)CNC(=O)[C@H](CCC(N)=O)NC(=O)[C@H](CO)NC(=O)[C@@H](N)Cc1c[nH]cn1)[C@@H](C)O)[C@@H](C)O)C(=O)N[C@@H](CC(=O)O)C(=O)N[C@@H](CO)C(=O)N[C@@H](CCCNC(=N)N)C(=O)N[C@@H](CCCNC(=N)N)C(=O)N[C@@H](C)C(=O)N[C@@H](CCC(N)=O)C(=O)N[C@@H](CC(=O)O)C(=O)N[C@@H](Cc1ccccc1)C(=O)N[C@H](C(=O)N[C@@H](CCC(N)=O)C(=O)N[C@@H](Cc1c[nH]c2ccccc12)C(=O)N[C@@H](CC(C)C)C(=O)N[C@H](C(=O)N[C@@H](CCCCN)C(=O)NCC(=O)N[C@@H](CCCNC(=N)N)C(N)=O)C(C)C)C(C)C [G1] | 6.6 | 6.9 | 112 | 6 | – | – |
| HSQGTFTSDYARYLDAAKAKEFIAWLVKGRG [G61] | 232 | 12.1 | 96 | 10.6 | – | – |
| HSQGTFTSDYAKYLDARRAKEFIAWLVKGRG [G51] | 154 | 58.1 | 91.2 | 8.2 | – | – |
| HSQGTFTSDYARYLDAKKAKEFIAWLVKGRG [G59] | 97.5 | 22.7 | 102 | 2.1 | – | – |
| HSQGTFTSDYSKYLEGQAAKEFIAWLVKGR-NH2 [G5] | 243 | 69.9 | 109 | 0.5 | – | – |
| HSQGTFTSDYARYLDARRAKEFIAWLVKGR-NH2 [G55] | 139 | 18.6 | 116 | 9.8 | – | – |
| HSQGTFTSDYAKYLDAKKAKEFIAWLVKGRG [G58] | 163 | 76.1 | 99 | 6.9 | – | – |
| HSQGTFTSDYARYLDARRAKEFIAWLVRGRG [G82] | 33.6 | 29.9 | 97.1 | 8.1 | – | – |
| HSQGTFTSDYAKYLDARRAKEFIAWLVKGRC [G77] | 61.1 | 9.5 | 92.1 | 8.9 | – | – |
| HSQGTFTSDYAKYLDARRACEFIAWLVKGRG [G71] | 25.6 | 4.3 | 93.3 | 5.8 | – | – |
| HSQGTFTSDYAKYLDAARAKEFIAWLVKGR-NH2 [G57] | 178 | 18.3 | 132 | 14.7 | – | – |

Second part, led by results:

| IC50 (glucagon receptor) [nM] | GLP1 Relative Potency (GLP-1 receptor [1]) [%] | Emax (GLP-1 receptor [1]) [%] | IC50 (GLP-1 receptor [2]) [nM] | % GLP1 max (GLP-1 receptor [1]) [%] | Compound | In vivo Decrease IpGTT AUC [3] [%] |
| --- | --- | --- | --- | --- | --- | --- |
| 16.1 | 64.5 | 95.8 | 1.5 | – | HSQGTFTSDYARYLDARRAREFIAWLVRGRGK [G85] | – |
| – | 0.6 | 90.5 | – | – | CCCCCCCCCCCCCCCC(=O)NCCCC[C@H](NC(=O)[C@H](C)NC(=O)[C@H](CCCNC(=N)N)NC(=O)[C@H](CCCNC(=N)N)NC(=O)[C@H](C)NC(=O)[C@H](CC(=O)O)NC(=O)[C@H](CC(C)C)NC(=O)[C@H](Cc1ccc(O)cc1)NC(=O)[C@H](CCCNC(=N)N)NC(=O)[C@H](C)NC(=O)[C@H](Cc1ccc(O)cc1)NC(=O)[C@H](CC(=O)O)NC(=O)[C@H](CO)NC(=O)[C@@H](NC(=O)[C@H](Cc1ccccc1)NC(=O)[C@@H](NC(=O)CNC(=O)[C@H](CCC(N)=O)NC(=O)[C@H](CO)NC(=O)[C@@H](N)Cc1c[nH]cn1)[C@@H](C)O)[C@@H](C)O)C(=O)N[C@@H](CCC(=O)O)C(=O)N[C@@H](Cc1ccccc1)C(=O)N[C@H](C(=O)N[C@@H](CCCCN)C(=O)N[C@@H](Cc1c[nH]c2ccccc12)C(=O)N[C@@H](CC(C)C)C(=O)N[C@H](C(=O)N[C@@H](CCCNC(=N)N)C(=O)NCC(=O)N[C@@H](CCCNC(=N)N)C(=O)NCC(=O)O)C(C)C)[C@@H](C)CC [G183] (H-HSQGTFTSDYARYLDARRAK(Palmitoyl)EFIKWLVRGRG-OH; N-terminus and C-terminus assumed) | 27 |
| – | 1.8 | – | – | 93.7 | HSQGTFTSDYAKYLDARRAKEFIAWLVKGRC(22kD) (HSQGTFTSDYAKYLDARRAKEFIAWLVKGRC(PEG 22kD); listed as Homo sapiens) [G277, 22kD PEG linked to the cysteine residue] | 46 |
| 11.7 | 61.8 | 114 | 1.4 | – | HSQGTFTSDYARYLDARRAREFIAWLVKGRG [G84] | – |
| 28.6 | 29.9 | 89.4 | 3.2 | – | HSQGTFTSDYARYLDARRAREFIKWLVRGRG [G83] | – |
| – | 6.2 | – | – | 112.7 | HSQGTFTSDYARYLDARRAREFIKWLVRGRC(22kD) (HSQGTFTSDYARYLDARRAREFIKWLVRGRC(PEG 22kD); listed as Homo sapiens) [G2185, 22kD PEG linked to the cysteine residue] | 44 |
| 48 | 13.0 | 104 | 4.5 | – | HSQGTFTSDYARYLDARRAREFIKWLVRGRC [G185] | – |
